Source: patent US20100075343A1, “NOVEL PEPTIDES” (priority 2007, published 2010)
Entries after “also recorded” stand apart in the source; their conditions may differ.

What was measured:
[1] = tested on: nerve endings in the posterior pituitary gland of AVP-eGFP Tg rats; test: Continuous measurement of AVP-eGFP fluorescence in rat posterior pituitary gland (vasopressin release); type: cell-based; conditions: peptide at final concentration of 10^−6 M in perfusate, last five minutes; control (basal) taken as 1
Text: In transgenic (Tg) rats produced using a fusion gene, which is a vasopressin (arginine vasopressin: AVP) gene inserted with the enhanced green fluorescent protein (eGFP) gene, eGFP is expressed specifically in AVP neurons of the hypothalamus-pituitary system and their axons (Ueta et al., Endocrinology, 146, 406-413, 2005). Vasopressin secretion-promoting activity can be measured using pituitary gland excised from such AVP-eGFP Tg rats.
The pituitary gland is excised from an AVP-eGFP Tg rat and placed in a chamber of a perfusion apparatus filled with perfusate (140 mM NaCl, 5 mM KCl, 10 mM HEPES, 10 mM glucose, 1.2 mM KH2PO4, 1.2 mM MgCl2, 2 mM CaCl2; the pH and osmotic pressure are adjusted to 7.37 and 295 to 300 mOsml, respectively). Laser beam (488 nm) from an excitation light irradiation device (^161C; manufactured by Spectra Physics), is irradiated onto the posterior pituitary gland through an optical fiber (GIF625-100; manufactured by Thorlabs). The eGFP fluorescent light as a result of excitation at nerve endings in the posterior pituitary gland is collected by a phototube (R6249HA; Hamamatsu Photonics) through another optical fiber. After conversion into an electric signal, it can be amplified with an amplifier (C7246; manufactured by Hamamatsu Photonics) to observe the change in the eGFP fluorescence. The amount of change serves as an indicator for the amount of change of AVP-eGFP present in the pituitary gland, and the vasopressin secretion-promoting activity of the VGF-related peptide or a pharmaceutically acceptable salt thereof can be measured.
Specifically, the recording time is set to 10 minutes. As a control (basal), only the perfusate is administered in the first five minutes. Then, a mixture of the perfusate and the VGF-related peptide or a pharmaceutically acceptable salt thereof prepared to have a final concentration of 10^−6 M is administered in the last five minutes. The amount of vasopressin secreted from the pituitary gland can be measured by observing changes in the eGFP fluorescence. […]

[2] = tested on: pituitary cells of the apoaequorin-expressing mice; test: Intracellular calcium ion increase (aequorin luminescence), pituitary gland; type: cell-based, mouse; conditions: for increase of intracellular calcium concentration in pituitary cells (RLU per second): added at 25 seconds; for luminescence (intracellular calcium ion increase) in pituitary gland: peptide at final concentrations of 1 μmol/L and 5 μmol/L
Description: (§1) A hypothalamus, pituitary gland, kidney, heart, blood vessel, or a portion of brain tissue is collected from transgenic mice systemically expressing apoaequorin (WO02/010371) produced by introducing an apoaequorin gene expression vector into fertilized eggs. The obtained hypothalamus, pituitary gland, kidney, heart, blood vessel, or brain tissue is cut finely into pieces, suspended in a medium containing coelenterazine, and then incubated to incorporate coelenterazine into the cells to form aequorin (a complex of apoaequorin and coelenterazine). Since aequorin luminesces upon binding to intracellular calcium ions, the relative luminescence level in cells before and after addition of a medium containing the peptide or a pharmaceutically acceptable salt thereof is measured in a luminometer every second over time and is used as an indicator of intracellular calcium ion concentration. Increase in the relative luminescence level due to addition of the peptide or pharmaceutically acceptable salt thereof confirms that the peptide or pharmaceutically acceptable salt thereof has the activity to increase intracellular calcium ion concentration.
(§2) Whether Peptides 1 to 8 synthesized in Example 2 have the activity of increasing intracellular calcium ion concentration was investigated using the organs of transgenic mice introduced with the apoaequorin gene and systemically expressing apoaequorin (hereinafter referred to as apoaequorin-expressing mice). In apoaequorin-expressing mouse cells, light is emitted when apoaequorin binds to a calcium ion in the presence of the luminescent substrate coelenterazine and thus the intracellular calcium ion concentration can be monitored. Patent Document (WO02/010371) discloses the method for producing apoaequorin-expressing mice, method for evaluating biologically active substances that use biological samples derived from the mice, and experimental results of evaluating biologically active peptides using the mouse organs as shown below. […] Therefore, apoaequorin-expressing mice can be used in the evaluation of the physiological activities of novel peptides.
(§3) Apoaequorin-expressing mice were produced according to the method disclosed in Reference Example 4 of Patent Document (WO02/010371). The apoaequorin-expressing mice were sacrificed, individual organs including thymus, hypothalamus, spleen, bone, aorta, heart, kidney, adrenal gland, pancreas, pituitary gland, uterus, medulla oblongata, and spinal cord were removed; and each of the organs was cut into small cubes of approximately 1 to 2 mm^3. Next, in 5-mL tubes (Rohren-Tubes; manufactured by Sarstedt, No. 55.476), three portions of each of the prepared organs were added to 50 μL of a 10 μmol/L solution of coelenterazine (manufactured by Molecular Probes) dissolved in RPMI 1640 medium, and these were cultured at 37° C. for three hours. After culturing, RPMI 1640 medium was added, and then Peptides 1 to 5 dissolved in RPMI 1640 medium were added 25 seconds after the addition of RPMI 1640 until each peptide had final concentrations of 1 μmol/L and of 5 μmol/L, and the relative luminescence levels were measured every second immediately after the addition of RPMI 1640 medium by using a luminometer (AutoLumat LB953, manufactured by Berthold).

[3] = tested on: hypothalamic cells of the apoaequorin-expressing mice; test: Intracellular calcium ion increase (aequorin luminescence), hypothalamus; type: cell-based, mouse; conditions: for increase of intracellular calcium concentration in hypothalamic cells (RLU per second): 1 μmol/L peptide, added at 25 seconds; for luminescence (intracellular calcium ion increase) in hypothalamus: peptide at final concentrations of 1 μmol/L and 5 μmol/L
Description: as §1, §2, §3

[4] = tested on: thymus of apoaequorin-expressing mice; test: Intracellular calcium ion increase (aequorin luminescence), thymus; type: cell-based, mouse; conditions: peptide at final concentrations of 1 μmol/L and 5 μmol/L
Description: as §1, §2
(§4) Apoaequorin-expressing mice were produced according to the method disclosed in Reference Example 4 of Patent Document (WO02/010371). […] After culturing, RPMI 1640 medium was added, and then Peptides 1 to 5 dissolved in RPMI 1640 medium were added 25 seconds after the addition of RPMI 1640 until each peptide had final concentrations of 1 μmol/L and of 5 μmol/L, and the relative luminescence levels were measured every second immediately after the addition of RPMI 1640 medium by using a luminometer (AutoLumat LB953, manufactured by Berthold).

[5] = tested on: medulla oblongata of apoaequorin-expressing mice; test: Intracellular calcium ion increase (aequorin luminescence), medulla oblongata; type: cell-based, mouse; conditions: peptide at final concentrations of 1 μmol/L and 5 μmol/L
Description: as §1, §2, §3

[6] = tested on: pancreatic cells of the apoaequorin-expressing mice; test: Intracellular calcium ion increase (aequorin luminescence), pancreas; type: cell-based, mouse; conditions: for luminescence (intracellular calcium ion increase) in pancreas: peptide at final concentrations of 1 μmol/L and 5 μmol/L
Description: as §1
Whether Peptides 1 to 8 synthesized in Example 2 have the activity of increasing intracellular calcium ion concentration was investigated using the organs of transgenic mice introduced with the apoaequorin gene and systemically expressing apoaequorin (hereinafter referred to as apoaequorin-expressing mice). In apoaequorin-expressing mouse cells, light is emitted when apoaequorin binds to a calcium ion in the presence of the luminescent substrate coelenterazine and thus the intracellular calcium ion concentration can be monitored. Patent Document (WO02/010371) discloses the method for producing apoaequorin-expressing mice, method for evaluating biologically active substances that use biological samples derived from the mice, and experimental results of evaluating biologically active peptides using the mouse organs as shown below. […]

[7] = tested on: spleen of apoaequorin-expressing mice; test: Intracellular calcium ion increase (aequorin luminescence), spleen; type: cell-based, mouse; conditions: peptide at final concentrations of 1 μmol/L and 5 μmol/L
Description: as §1, §2, §4

[8] = tested on: cardiac cells of the apoaequorin-expressing mice; test: Intracellular calcium ion increase (aequorin luminescence), heart; type: cell-based, mouse
Description: as §1, §2, §3

[9] = tested on: aortic cells of the apoaequorin-expressing mice; test: Intracellular calcium ion increase (aequorin luminescence), aorta; type: cell-based, mouse
Description: as §1, §2, §4

[10] = 1 μmol/L peptide, added at 25 seconds
[11] = peptide at final concentrations of 1 μmol/L and 5 μmol/L

Peptide 1: amino acid sequence at position 177 to 206 in human VGF (QQETAAAETETRTHTLTRVNLESPGPERVW; synthetic Peptide 1, VGF-related peptide, human VGF positions 177-206)
vasopressin release from nerve endings in the posterior pituitary gland (change in eGFP fluorescence) [1]: reduced eGFP fluorescence; also recorded: vasopressin release | increase of intracellular calcium concentration in pituitary cells (RLU per second) ([2]; 5 μmol/L peptide): increase of intracellular calcium concentration | luminescence (intracellular calcium ion increase) in pituitary gland [2]: luminescence was observed | increase of intracellular calcium concentration in hypothalamic cells (RLU per second) [3]: increase of intracellular calcium concentration | luminescence (intracellular calcium ion increase) in hypothalamus [3]: luminescence was observed | luminescence (intracellular calcium ion increase) in thymus [4]: luminescence was observed | luminescence (intracellular calcium ion increase) in medulla oblongata [5]: luminescence was observed

Peptide 4: amino acid sequence at position 533 to 543 in human VGF (EEDEVYPPGPY; synthetic Peptide 4, VGF-related peptide, human VGF positions 533-543)
increase of intracellular calcium concentration in pituitary cells (RLU per second) ([2]; 1 μmol/L peptide): increase of intracellular calcium concentration | luminescence (intracellular calcium ion increase) in pituitary gland [2]: luminescence was observed | increase of intracellular calcium concentration in hypothalamic cells (RLU per second) [3]: increase of intracellular calcium concentration | luminescence (intracellular calcium ion increase) in hypothalamus [3]: luminescence was observed | luminescence (intracellular calcium ion increase) in pancreas [6]: luminescence was observed

Peptide 7: amino acid sequence at position 400 to 417 in human VGF (QNALLFAEEEDGEAGAED; synthetic Peptide 7, VGF-related peptide, human VGF positions 400-417)
luminescence (intracellular calcium ion increase) in spleen [7]: luminescence was observed | increase of intracellular calcium concentration in pituitary cells (RLU per second) ([2]; 1 μmol/L peptide): increase of intracellular calcium concentration | luminescence (intracellular calcium ion increase) in pituitary gland [2]: luminescence was observed | increase of intracellular calcium concentration in cardiac cells (RLU per second) [8, 10]: increase of intracellular calcium concentration | luminescence (intracellular calcium ion increase) in heart [8, 11]: luminescence was observed | increase of intracellular calcium concentration in hypothalamic cells (RLU per second) [3]: increase of intracellular calcium concentration | luminescence (intracellular calcium ion increase) in hypothalamus [3]: luminescence was observed | increase of intracellular calcium concentration in aortic cells (RLU per second) [9, 10]: increase of intracellular calcium concentration | luminescence (intracellular calcium ion increase) in aorta [9, 11]: luminescence was observed

Peptide 10: amino acid sequence at position 485 to 503 in human VGF (NAPPEPVPPPRAAPAPTHV; synthetic Peptide 10, VGF-related peptide, human VGF positions 485-503)
increase of intracellular calcium concentration in pituitary cells (RLU per second) ([2]; 1 μmol/L peptide): increase of intracellular calcium concentration | luminescence (intracellular calcium ion increase) in pituitary gland [2]: luminescence was observed | increase of intracellular calcium concentration in hypothalamic cells (RLU per second) [3]: increase of intracellular calcium concentration | luminescence (intracellular calcium ion increase) in hypothalamus [3]: luminescence was observed | increase of intracellular calcium concentration in pancreatic cells (RLU per second) ([6]; 5 μmol/L peptide, added at 25 seconds): increase of intracellular calcium concentration | luminescence (intracellular calcium ion increase) in pancreas [6]: luminescence was observed

Peptide 11: amino acid sequence at position 533 to 552 in human VGF (EEDEVYPPGPYHPFPNYIRP; synthetic Peptide 11, VGF-related peptide, human VGF positions 533-552)
vasopressin release from nerve endings in the posterior pituitary gland (change in eGFP fluorescence) [1]: reduced eGFP fluorescence; also recorded: vasopressin release | increase of intracellular calcium concentration in pituitary cells (RLU per second) ([2]; 5 μmol/L peptide): increase of intracellular calcium concentration | luminescence (intracellular calcium ion increase) in pituitary gland [2]: luminescence was observed | increase of intracellular calcium concentration in hypothalamic cells (RLU per second) [3]: increase of intracellular calcium concentration | luminescence (intracellular calcium ion increase) in hypothalamus [3]: luminescence was observed

Peptide 12: amino acid sequence at position 556 to 585 in rat VGF (TLQPPASSRRRHFHHALPPARHHPDLEAQA; synthetic Peptide 12, VGF-related peptide, rat VGF positions 556-585)
vasopressin release from nerve endings in the posterior pituitary gland (change in eGFP fluorescence) [1]: reduced eGFP fluorescence; also recorded: vasopressin release | increase of intracellular calcium concentration in pituitary cells (RLU per second) ([2]; 5 μmol/L peptide): increase of intracellular calcium concentration | luminescence (intracellular calcium ion increase) in pituitary gland [2]: luminescence was observed
